Data reported in patent publication US20180289655A1, “Methods and Compositions for the Intravenous Administration of Fumarates for the Treatment of Neurological Diseases” (Biogen MA Inc., priority 2015, published 2018).
Counter-ions that a name gives are not always drawn.

Legend:
[1] = system: SOD1-G93A mice; assay: SOD1-G93A mouse model of ALS, oral DMF; format: in vivo; details: DMF p.o. 100 mg/kg daily
Description: Motor performance was assessed by rotarod at day 85, 100, and 115. Health was monitored by clinical observation and body weight. […] Body weight was modestly impacted by DMF.
Thirty-two female SOD1-G93A mice were purchased from Jackson Laboratories (Line 2726). All mice were transgene positive. Sixteen mice were used per dosing group. Dosing began at day 50-55. All procedures were conducted in accordance with the NIH Guide for the Care and Use of Laboratory Animals and were approved by the Biogen Idec Institutional Animal Care and Use Committee (IACUC Protocol No. 0408-2011).
Mice were dosed once daily either with vehicle or DMF. Dosing volume was 10 ml/kg, introduced by oral gavage.
Disease onset and progression in the SOD1-G93A was monitored by three approaches. All approaches were done in a blinded fashion. Body weight was recorded on a daily basis. Mice were also inspected on a daily basis for disease onset, as defined by leg tremor or decreased hind limb flexion upon tail lift. Mice were also assessed on an accelerating rotarod test at weeks 12, 14, and 16. For this test, mice were first acclimated to a rod rotating at 2 rpm for 300 seconds once a day for two days. For the actual test, mice are placed on rod accelerating from 2 to 40 rpm over 90 seconds. Upon reaching full speed, the test continues for an additional 30 seconds. Mice were tested three times per day and the longest time recorded. Mice that were unable to remain on the rod for 20 seconds were excluded from further testing.
Mice were determined to have reached endpoint criteria for humane euthanasia when then when they failure to right from either side within 15 seconds.
For rotarod and body weight, values were compared by two-way ANOVA. Body weight was further evaluated by break point analysis. Break point analysis identifies the inflection point of a curve, by completing a series of linear regression fits. The intersection of the curve fits for the ascending and descending slopes with the minimal residual error is defined as the break point. For each mouse, the breakpoint was determined. The two groups were then compared by Student's T-test. Differences in onset and survival were tested for using the Mantel-Cox log rank test. A further test with the Cox proportional hazards test incorporating littermate status was completed.

[2] = MMF exposure in plasma and tissues after DMF PO or IV once daily for 5 days (LC-MS/MS); format: in vivo, Sprague-Dawley rats
Description: On Day 5 of the study 3 time points were evaluated: 10 minutes, 2 hours, and 6 hours after dosing, as illustrated in the timeline. At each time point, 5 animals from each group were sacrificed. At the 2 and 6 hour time points, the tissue samples from groups E, F, I, and J from each animal were split, with half of the tissue being processed for MMF exposure, and half processed for qRT-PCR. Note vehicle groups (C, D, G, and H) were not processed for MMF measurement and only used for qRT-PCR.
At 10 minutes, 2 and 6 hours, plasma and tissues (forebrain, cerebellum, jejunum, kidney and spleen) from cohorts of animals (Groups A, B, E, F, I, J) were collected to measure the concentration of MMF in the sample. MMF was quantitated using a non-GLP, but validated LC/MS/MS assay. Statistical comparisons were performed using the non-parametric Mann-Whitney U test.
As mentioned previously, Sprague-Dawley rats were sacrificed and terminal plasma and tissue samples were collected 10 minutes, 2 and 6 hours after dosing and MMF exposure in plasma, brain, cerebellum, jejunum and kidney was determined as follows. Tissues were snap frozen on dry ice after dissection. Immediately prior to blood collection, 4 μL of 250 mg/mL stock mixture of sodium fluoride (NaF) in water was added to each 100 μL of blood collected in a lithium heparin tube. The stock NaF mixture was prepared on the day of use and kept as a homogenous suspension through continuous stirring on a stir plate. Whole blood was added to the tube, and then samples were inverted several times and stored on wet ice (2° C. to 8° C.). All samples were centrifuged within 30 minutes of collection at 4° C. for 15 minutes at 1500×g (4200 RPM). Plasma was then transferred into pre-chilled tubes, immediately frozen on dry ice and maintained frozen (≤−80° C.) until analysis.
Aliquots (50 μL) of either plasma or tissue homogenate samples were extracted by protein precipitation with acetonitrile containing methylethyl fumarate or −4C13-MMF as the internal standard. For tissue samples, aliquots of homogenization solution (‘blank’ plasma with 12.5 mg/mL of NaF) were added to the tissue samples. The tissue samples were homogenized at 6.5 m/s for 60 seconds on a Fast Prep Tissue Homogenizer prior to protein precipitation. Concentrations of MMF in plasma, forebrain, cerebellum, jejunum, spleen and kidney samples were determined using qualified LC-MS/MS assays in the respective matrices. Data collection and integration was accomplished using an API 5500 triple quadrupole mass spectrometer with a turbo ion spray interface (AB Sciex, Foster City, Calif.), and Analyst software (version 1.6.1). The peak area ratios of MMF relative to its internal standard were used to construct a standard curve using a quadratic regression with a 1/x^2 weighting. The lower limit of quantitation (LLOQ) was 10 ng/mL for all four assays. The performances of the assays were monitored by the precision and accuracy of the standards and quality control samples.

COC(=O)/C=C/C(=O)OC [DMF, dimethyl fumarate]
Disease onset as assessed by limb splay [1]: did not significantly change onset
Survival [1]: did not prolong survival
Transition from weight gain to weight loss (breakpoint analysis) ([1]; p<0.05): significantly delayed
Rotarod performance ([1]; weeks 12, 14, 16): did not alter rotarod performance
MMF level in any tissue ([2]; 6 hours after IV or PO DMF dosing): no detectable MMF in any tissue
MMF level in forebrain or cerebellum ([2]; 6 hours after dosing, PO or IV): undetectable
MMF level in any tissue ([2]; DMF IV 30 mg/kg, 2 hours): no MMF was detectable in any tissue
MMF level in brain ([2]; DMF IV 30 mg/kg, 2 hours): below the level of quantitation
MMF level in plasma ([2]; DMF IV 30 mg/kg, 6 hours): not detectable
MMF levels in kidney, jejunum and spleen ([2]; DMF PO 100 mg/kg, 2 hours): markedly decreased, but detectable
MMF levels in jejunum, kidney and spleen, PO versus IV ([2]; PO 100 mg/kg vs IV 30 mg/kg, 10 minutes): these differences were not significant
